These results are taken from US12252484B2, “Pyrazolopyridine compounds for the treatment of autoimmune disease” (Hoffmann-La Roche Inc., priority 2018, dated 2025).

The target of the assay is T1, human TLR9 (Homo sapiens, UniProt Q9NR96).
T1 sequence (Q9NR96 26-1032): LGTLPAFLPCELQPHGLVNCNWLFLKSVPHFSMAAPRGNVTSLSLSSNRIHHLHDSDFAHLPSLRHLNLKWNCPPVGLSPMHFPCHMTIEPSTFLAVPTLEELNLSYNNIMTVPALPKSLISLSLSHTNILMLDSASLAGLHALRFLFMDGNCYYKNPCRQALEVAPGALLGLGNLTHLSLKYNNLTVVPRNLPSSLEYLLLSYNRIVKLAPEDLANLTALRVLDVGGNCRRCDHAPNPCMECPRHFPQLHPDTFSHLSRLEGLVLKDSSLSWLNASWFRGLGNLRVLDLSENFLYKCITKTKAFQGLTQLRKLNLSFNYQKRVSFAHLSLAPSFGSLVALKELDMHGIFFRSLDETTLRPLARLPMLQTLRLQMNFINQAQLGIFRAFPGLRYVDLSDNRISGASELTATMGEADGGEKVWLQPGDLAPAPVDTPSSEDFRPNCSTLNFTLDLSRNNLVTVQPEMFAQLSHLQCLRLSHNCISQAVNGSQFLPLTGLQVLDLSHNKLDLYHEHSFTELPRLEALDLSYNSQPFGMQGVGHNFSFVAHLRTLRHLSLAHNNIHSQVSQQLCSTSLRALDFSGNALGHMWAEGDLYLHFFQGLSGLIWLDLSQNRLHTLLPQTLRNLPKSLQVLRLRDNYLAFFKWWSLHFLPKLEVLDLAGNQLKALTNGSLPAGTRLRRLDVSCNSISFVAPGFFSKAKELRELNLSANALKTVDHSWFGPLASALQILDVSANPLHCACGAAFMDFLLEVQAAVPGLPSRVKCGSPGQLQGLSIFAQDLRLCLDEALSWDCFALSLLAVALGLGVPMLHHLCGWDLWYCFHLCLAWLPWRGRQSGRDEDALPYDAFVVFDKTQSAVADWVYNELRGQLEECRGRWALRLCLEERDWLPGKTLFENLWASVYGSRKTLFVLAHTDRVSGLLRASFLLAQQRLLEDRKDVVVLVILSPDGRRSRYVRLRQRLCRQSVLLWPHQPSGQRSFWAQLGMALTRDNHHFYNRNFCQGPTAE
As to the kind of experiment: HEK293-Blue-hTLR-9 cells assay (SEAP reporter, ODN2006 stimulation). It counts as cell-based. The note with it: HEK293-Blue-hTLR-9 cells, ODN2006 ligand, 20 hrs incubation; read-out: TLR9 IC50. On the procedure: The following tests were carried out in order to determine the activity of the compounds of formula (I) in HEK293-Blue-hTLR-7/8/9 cells assay.
HEK293-Blue-hTLR-9 Cells Assay:
A stable HEK293-Blue-hTLR-9 cell line was purchased from InvivoGen (Cat. #: hkb-htlr9, San Diego, California, USA). These cells were originally designed for studying the stimulation of human TLR9 by monitoring the activation of NF-κB. A SEAP (secreted embryonic alkaline phosphatase) reporter gene was placed under the control of the IFN-β minimal promoter fused to five NF-κB and AP-1-binding sites. The SEAP was induced by activating NF-κB and AP-1 via stimulating HEK-Blue hTLR9 cells with TLR9 ligands. Therefore the reporter expression was declined by TLR9 antagonist under the stimulation of a ligand, such as ODN2006 (Cat. #: tlrl-2006-1, Invivogen, San Diego, California, USA), for incubation of 20 hrs. The cell culture supernatant SEAP reporter activity was determined using QUANTI-Blue™ kit (Cat. #: rep-qb1, Invivogen, San Diego, California, USA) at a wavelength of 640 nm, a detection medium that turns purple or blue in the presence of alkaline phosphatase.
HEK293-Blue-hTLR9 cells were incubated at a density of 250,000˜450,000 cells/mL in a volume of 170 μL in a 96-well plate in Dulbecco's Modified Eagle's medium (DMEM) containing 4.5 g/L glucose, 50 U/mL penicillin, […], 2 mM L-glutamine, 10% (v/v) heat-inactivated fetal bovine serum with addition of 20 μL test compound in a serial dilution in the presence of final DMSO at 1% and 10 μL of 20 uM ODN2006 in above DMEM, perform incubation under 37° C. in a CO2 incubator for 20 hrs. Then 20 μL of the supernatant from each well was incubated with 180 μL Quanti-blue substrate solution at 37° C. for 2 hrs and the absorbance was read at 620˜655 nm using a spectrophotometer. The signalling pathway that TLR9 activation leads to downstream NF-κB activation has been widely accepted, and therefore similar reporter assay was modified for evaluating TLR9 antagonist.

Where only a bound is given, the exact number is not on record here.

In general, IC50 refers to the concentration that gives 50% inhibition.

As for `C[C@@H]1CN(c2ccc(C#N)n3nccc23)C[C@H](C(=O)NC2CCNCC2)O1` [Example 24, (2R,6R)-4-(7-cyanopyrazolo[1,5-a]pyridin-4-yl)-6-methyl-N-(4-piperidyl)morpholine-2-carboxamide], the IC50 was 13 µM.

In the case of `C[C@@H]1CN(c2ccc(C#N)n3nccc23)C[C@H](C(=O)NC2CC3(CNC3)C2)O1` [Example 3, (2R,6R)-N-(2-azaspiro[3.3]heptan-6-yl)-4-(7-cyanopyrazolo[1,5-a]pyridin-4-yl)-6-methyl-morpholine-2-carboxamide], the IC50 worked out at 36 µM.

Regarding `CCC(C)(C)NC(=O)[C@H]1CN(c2ccc(C#N)n3nccc23)C[C@@H](C)O1` [Example 17, (2R,6R)-4-(7-cyanopyrazolo[1,5-a]pyridin-4-yl)-N-(1,1-dimethylpropyl)-6-methyl-morpholine-2-carboxamide], the IC50 was 33 µM.

As to `C[C@@H]1CN(c2ccc(C#N)n3nccc23)C[C@H](C(=O)NC(C)(C)CO)O1` [Example 16, (2R,6R)-4-(7-cyanopyrazolo[1,5-a]pyridin-4-yl)-N-(2-hydroxy-1,1-dimethyl-ethyl)-6-methyl-morpholine-2-carboxamide], the IC50 is over 100 µM.

Regarding `C[C@@H]1CN(c2ccc(C#N)n3nccc23)C[C@H](C(=O)NC2CC3COCC(C2)N3)O1` (stereo partly drawn) [Example 22, Endo-(2R,6R)-4-(7-cyanopyrazolo[1,5-a]pyridin-4-yl)-6-methyl-N-[3-oxa-9-azabicyclo[3.3.1]nonan-7-yl]morpholine-2-carboxamide], the IC50 was found to be 18 µM.

In the case of `C[C@@H]1CN(c2ccc(C#N)n3nccc23)C[C@H](C(=O)N[C@H]2CC[C@@H](O)CC2)O1` [Example 20, Cis-(2R,6R)-4-(7-cyanopyrazolo[1,5-a]pyridin-4-yl)-N-(4-hydroxycyclohexyl)-6-methyl-morpholine-2-carboxamide], the IC50 came out at 71 µM.

Turning to `C[C@@H]1CN(c2ccc(C#N)n3nccc23)C[C@H](C(=O)NC23CC(CO)(C2)C3)O1` [Example 15, (2R,6R)-4-(7-cyanopyrazolo[1,5-a]pyridin-4-yl)-N-[3-(hydroxymethyl)-1-bicyclo[1.1.1]pentanyl]-6-methyl-morpholine-2-carboxamide], the IC50 was over 100 µM.

Turning to `C[C@@H]1CN(c2ccc(Cl)n3nccc23)C[C@H](C(=O)NC2CCN(C)CC2)O1` [Example 38, (2R,6R)-4-(7-chloropyrazolo[1,5-a]pyridin-4-yl)-6-methyl-N-(1-methyl-4-piperidyl)morpholine-2-carboxamide], the IC50 was determined as 36 µM.

Turning to `C[C@@H]1CN(c2ccc(C#N)n3nccc23)C[C@H](C(=O)Nc2ccc(C(=O)N3CCNCC3)cc2)O1` [Example 42, (2R,6R)-4-(7-cyanopyrazolo[1,5-a]pyridin-4-yl)-6-methyl-N-[4-(piperazine-1-carbonyl)phenyl]morpholine-2-carboxamide], the IC50 is 1.8 µM.

Turning to `C[C@@H]1CN(c2ccc(C#N)n3nccc23)C[C@H](C(=O)NC2CC3CCC(C2)N3)O1` (stereo partly drawn) [Example 23, Exo-(2R,6R)-N-[8-azabicyclo[3.2.1]octan-3-yl]-4-(7-cyanopyrazolo[1,5-a]pyridin-4-yl)-6-methyl-morpholine-2-carboxamide], the IC50 was over 100 µM.

For the compound `C[C@@H]1CN(c2ccc(C#N)n3nccc23)C[C@H](C(=O)NC23CC4CC(CC(C4)C2)C3)O1` [Example 12, (2R,6R)-N-(1-adamantyl)-4-(7-cyanopyrazolo[1,5-a]pyridin-4-yl)-6-methyl-morpholine-2-carboxamide], the IC50 came out at 42 µM.

Consider `C[C@@H]1CN(c2ccc(C#N)n3nccc23)C[C@H](C(=O)N[C@H]2CNC[C@H]2F)O1` [Example 2, (2R,6R)-4-(7-cyanopyrazolo[1,5-a]pyridin-4-yl)-N-[(3S,4R)-4-fluoropyrrolidin-3-yl]-6-methyl-morpholine-2-carboxamide], for which the IC50 is over 100 µM.

For the compound `COCCNC(=O)[C@H]1CN(c2ccc(C#N)n3nccc23)C[C@@H](C)O1` [Example 9, (2R,6R)-4-(7-cyanopyrazolo[1,5-a]pyridin-4-yl)-N-(2-methoxyethyl)-6-methyl-morpholine-2-carboxamide], the IC50 is over 100 µM.

As for `C[C@@H]1CN(c2ccc(C#N)n3nccc23)C[C@H](C(=O)NC2CC3CC2CN3)O1` (stereo partly drawn) [Example 36, (2R,6R)-N-(2-azabicyclo[2.2.1]heptan-5-yl)-4-(7-cyanopyrazolo[1,5-a]pyridin-4-yl)-6-methyl-morpholine-2-carboxamide], the IC50 amounted to 12 µM.

Take `C[C@@H]1CN(c2ccc(C#N)n3ncc(F)c23)C[C@H](C(=O)NC2CCN(C)CC2)O1` [Example 47, (2R,6R)-4-(7-cyano-3-fluoro-pyrazolo[1,5-a]pyridin-4-yl)-6-methyl-N-(1-methyl-4-piperidyl)morpholine-2-carboxamide]: the IC50 turned out to be 14 µM.

Take `C[C@@H]1CN(c2ccc(C#N)n3nccc23)C[C@H](C(=O)NC2CNC[C@H]2F)O1` (stereo partly drawn) [Example 5, Cis-(2R,6R)-4-(7-cyanopyrazolo[1,5-a]pyridin-4-yl)-6-methyl-N-(4-fluoropyrrolidin-3-yl) morpholine-2-carboxamide]: the IC50 is 77 µM.

On to `C[C@@H]1CN(c2ccc(C#N)n3nccc23)C[C@H](C(=O)NC2CC3CCC(C2)N3C)O1` (stereo partly drawn) [Example 33, (2R,6R)-4-(7-cyanopyrazolo[1,5-a]pyridin-4-yl)-6-methyl-N-(8-methyl-8-azabicyclo[3.2.1]octan-3-yl)morpholine-2-carboxamide], for which the IC50 came out at 7.7 µM.

Consider `C[C@@H]1CN(c2ccc(C#N)n3nccc23)C[C@H](C(=O)N[C@H]2CC[C@H](O)CC2)O1` [Example 21, Trans-(2R,6R)-4-(7-cyanopyrazolo[1,5-a]pyridin-4-yl)-N-(4-hydroxycyclohexyl)-6-methyl-morpholine-2-carboxamide], for which the concentration for half-maximal inhibition (IC50) is over 100 µM.

For `C[C@@H]1CN(c2ccc(C#N)n3nccc23)C[C@H](C(=O)NC2(C)CCNCC2)O1` [Example 19, (2R,6R)-4-(7-cyanopyrazolo[1,5-a]pyridin-4-yl)-6-methyl-N-(4-methyl-4-piperidyl)morpholine-2-carboxamide], the IC50 worked out at 16 µM.
